PMC10108347, “Heterobifunctional Ligase Recruiters Enable pan-Degradation of Inhibitor of Apoptosis Proteins” (Journal of Medicinal Chemistry, 2023)
Entries after “also recorded” stand apart in the source; their conditions may differ. Like-named read-outs stand apart in the source and are kept apart here.

Tests used:
[1] = molecular target: T1, plasma protein (HSA column) (Homo sapiens, UniProt P02768); experiment: Plasma protein binding estimated by HPLC on a […] HSA column; type: in vitro ADME; conditions: CHIRALPAK HSA column (50 × 3 mm, 5 μm), estimated by an HPLC-based method, read-out: PPB (plasma protein binding) (converted)
T1 construct: purchased
T1 sequence (P02768 25-609): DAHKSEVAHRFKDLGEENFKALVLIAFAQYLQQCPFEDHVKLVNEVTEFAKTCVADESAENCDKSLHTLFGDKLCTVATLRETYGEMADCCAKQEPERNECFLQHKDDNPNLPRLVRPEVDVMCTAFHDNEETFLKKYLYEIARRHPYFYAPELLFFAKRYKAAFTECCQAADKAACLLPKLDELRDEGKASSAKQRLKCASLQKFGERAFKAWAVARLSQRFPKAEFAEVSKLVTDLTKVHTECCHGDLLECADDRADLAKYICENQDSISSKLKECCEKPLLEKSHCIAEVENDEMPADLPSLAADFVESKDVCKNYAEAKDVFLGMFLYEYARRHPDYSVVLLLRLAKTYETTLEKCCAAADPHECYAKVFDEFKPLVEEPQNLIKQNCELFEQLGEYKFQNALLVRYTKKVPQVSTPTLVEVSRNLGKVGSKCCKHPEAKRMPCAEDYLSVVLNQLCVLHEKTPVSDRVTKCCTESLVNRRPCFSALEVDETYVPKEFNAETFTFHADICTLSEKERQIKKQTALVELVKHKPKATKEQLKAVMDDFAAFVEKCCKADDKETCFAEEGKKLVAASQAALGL
Experimental: Plasma protein binding (% PPB) was estimated by correlating the logarithmic retention times of the analytes on a […] HSA 50 × 3 mm, 5 μm column with the literature-known % PPB values (converted into log K values) of the following drugs: warfarin, ketoprofen, budesonide, nizatidine, indomethacin, acetylsalicylic acid, carbamazepine, piroxicam, nicardipine, and cimetidine (for details, see Valko et al.).[67] The samples were dissolved in MeCN/DMSO 9:1 to achieve a final concentration of 0.5 mg/mL. Mobile phase A was 50 mM ammonium acetate adjusted to pH 7.4 with ammonia solution, while mobile phase B was iPrOH. The flow rate was set to 1.0 mL/min, the UV detector was set to 254 nm, and the column temperature was kept at 30 °C. After injecting 2 μL of the sample, a linear gradient from 100% A to 30% iPrOH in 5.4 min was applied. From 5.4 to 18 min, 30% iPrOH was kept, followed by switching back to 100% A in 1.0 min and a re-equilibration time of 6 min. With the aid of the calibration line (R^2 = 0.96), the log K values of new substances were calculated and converted to their % PPB values.

[2] = Log D7.4 measurement by chromatographic (fast-gradient HPLC) method; conditions: pH 7.4
Experimental: The system was calibrated by plotting the retention times of six different drugs (atenolol, metoprolol, labetalol, diltiazem, triphenylene, and permethrin) versus their literature-known log D7.4 in a calibration line (R^2 = 0.99). Subsequently, the mean retention times of the analytes were taken to calculate their log D7.4 values with the aid of the calibration line. At least two independent measurements of each analyte were performed.

[3] = molecular target: XIAP (Homo sapiens, UniProt P98170); experiment: Immunoblotting (western blot) quantification of XIAP levels in MM.1S cells; conditions: 16 h; for remaining activity at 0.1 µM: MM1.S
Sequence of XIAP (P98170 whole entry): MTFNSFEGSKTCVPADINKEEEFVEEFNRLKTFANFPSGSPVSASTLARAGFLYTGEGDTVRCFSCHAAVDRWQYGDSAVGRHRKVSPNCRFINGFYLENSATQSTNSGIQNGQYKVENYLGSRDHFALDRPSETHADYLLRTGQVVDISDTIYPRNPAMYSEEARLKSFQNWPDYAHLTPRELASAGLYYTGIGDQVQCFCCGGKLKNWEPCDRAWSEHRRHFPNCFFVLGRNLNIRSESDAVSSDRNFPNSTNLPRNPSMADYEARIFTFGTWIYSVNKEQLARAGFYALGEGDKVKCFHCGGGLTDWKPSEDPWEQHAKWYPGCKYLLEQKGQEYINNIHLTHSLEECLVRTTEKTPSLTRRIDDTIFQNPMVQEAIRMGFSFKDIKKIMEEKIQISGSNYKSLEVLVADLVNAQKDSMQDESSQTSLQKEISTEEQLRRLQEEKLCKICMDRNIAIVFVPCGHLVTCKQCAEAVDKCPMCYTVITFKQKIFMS
Experimental: To evaluate the capability of our panel of hetero-PROTACs for E3 ligase degradation, VHL19, VHL30, CRBN, cIAP1, cIAP2, and XIAP levels were quantified by western blot analyses. […] SDS-PAGE was performed, and proteins were then transferred onto PVDF membranes. Blotted membranes were blocked with 5% milk in Tris-buffered saline/Tween20 (TBST). Primary antibodies were diluted in 5% BSA in TBST, and incubations were performed overnight at 4 °C. Secondary HRP-conjugated antibodies diluted in 5% milk were incubated for 1 h at room temperature. Detection of proteins on PVDF was carried out using the WesternBright ECL HRP substrate or the WesternBright Sirius HRP substrate (Advansta, San Jose, USA) and imaged with LAS 4000× (Fujifilm). Membranes were subjected to 10 min incubation with Restore Western Blot Stripping Buffer (Thermo Fisher Scientific, Waltham, USA), followed by TBST washes. After brief re-activation with methanol, the membranes were blocked, and further probing of proteins was carried out.
Quantification of blots was performed using ImageJ software (National Institutes of Health).

[4] = test system: IAPs (cIAP1, cIAP2, XIAP); experiment: Immunoblotting of IAPs in MM.1S cells, overall degradation profile, time course and washout; type: cell-based; conditions: 16 h, western blot, concentration (10 nM to 1 μM)
Experimental: Next, we examined the persistence of IAP degradation in MM.1S cells after a single exposure to 1 μM of 9 and subsequent removal of the compound. […] The reliance on CRL2^VHL was assessed with a neddylation inhibitor MLN4924, which blocks the activity of CRLs (Figure S13A).

[5] = molecular target: cIAP1 (Homo sapiens, UniProt Q13490); experiment: Immunoblotting (western blot) quantification of cIAP1 levels in MM.1S cells; conditions: MM1.S, 16 h
Sequence of cIAP1 (Q13490 whole entry): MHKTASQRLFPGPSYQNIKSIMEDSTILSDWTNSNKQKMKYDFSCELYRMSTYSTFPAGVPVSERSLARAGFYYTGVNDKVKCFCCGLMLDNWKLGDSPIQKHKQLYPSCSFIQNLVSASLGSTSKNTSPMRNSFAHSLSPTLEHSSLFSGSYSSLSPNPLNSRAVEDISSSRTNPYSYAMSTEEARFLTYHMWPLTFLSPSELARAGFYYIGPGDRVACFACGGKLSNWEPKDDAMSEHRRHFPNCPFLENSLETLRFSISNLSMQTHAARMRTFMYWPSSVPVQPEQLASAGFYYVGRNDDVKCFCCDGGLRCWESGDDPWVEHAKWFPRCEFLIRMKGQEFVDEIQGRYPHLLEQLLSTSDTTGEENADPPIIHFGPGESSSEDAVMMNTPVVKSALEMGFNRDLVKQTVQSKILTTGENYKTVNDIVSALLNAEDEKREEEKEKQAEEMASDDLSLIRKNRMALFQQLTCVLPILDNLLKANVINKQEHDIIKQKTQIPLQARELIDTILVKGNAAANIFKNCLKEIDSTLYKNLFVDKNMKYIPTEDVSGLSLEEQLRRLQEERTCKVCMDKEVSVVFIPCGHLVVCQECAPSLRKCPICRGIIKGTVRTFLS

[6] = molecular target: cIAP2 (Homo sapiens, UniProt Q13489); experiment: Immunoblotting (western blot) quantification of cIAP2 levels in MM.1S cells; conditions: MM1.S, 16 h
Sequence of cIAP2 (Q13489 whole entry): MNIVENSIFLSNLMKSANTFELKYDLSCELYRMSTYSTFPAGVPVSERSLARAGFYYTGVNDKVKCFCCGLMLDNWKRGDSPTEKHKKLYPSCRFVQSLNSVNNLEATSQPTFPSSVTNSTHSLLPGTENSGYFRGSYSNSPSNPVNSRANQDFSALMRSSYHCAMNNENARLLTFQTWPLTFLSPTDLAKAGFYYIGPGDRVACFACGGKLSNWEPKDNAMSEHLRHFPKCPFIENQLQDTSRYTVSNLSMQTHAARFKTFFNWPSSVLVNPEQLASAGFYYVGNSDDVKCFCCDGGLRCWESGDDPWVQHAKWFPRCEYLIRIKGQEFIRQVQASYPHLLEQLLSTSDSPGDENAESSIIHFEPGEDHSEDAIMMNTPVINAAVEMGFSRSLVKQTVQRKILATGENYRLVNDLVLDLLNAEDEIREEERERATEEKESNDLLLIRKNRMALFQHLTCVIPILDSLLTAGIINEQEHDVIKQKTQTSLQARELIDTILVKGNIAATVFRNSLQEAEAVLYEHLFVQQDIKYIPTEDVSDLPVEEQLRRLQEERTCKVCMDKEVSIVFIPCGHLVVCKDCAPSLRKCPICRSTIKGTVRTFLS

[7] = molecular target: VHL30 (Homo sapiens, UniProt P40337); experiment: Immunoblotting (western blot) quantification of VHL30 levels in MM.1S cells; conditions: MM1.S, 16 h
Sequence of VHL30 (P40337 whole entry): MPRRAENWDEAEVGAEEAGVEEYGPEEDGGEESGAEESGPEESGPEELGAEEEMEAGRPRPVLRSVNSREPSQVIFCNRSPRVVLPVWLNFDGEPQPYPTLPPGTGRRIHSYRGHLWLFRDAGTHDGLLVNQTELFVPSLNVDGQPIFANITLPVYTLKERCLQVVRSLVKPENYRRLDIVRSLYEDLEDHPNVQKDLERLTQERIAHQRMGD

[8] = read-out: %remaining protein XIAP
[9] = read-out: %remaining protein cIAP1
[10] = read-out: %remaining protein cIAP2
[11] = read-out: %remaining protein VHL30

Row | Compound | fraction unbound at 0.5 mg/mL [1] | chromatographic logD [2] | XIAP degradation (in words) ([3]; MM.1S cells, western blot, 0.1 or 1 μM) | IAP degradation profile (in words) [4] | remaining activity at 0.1 µM ([3]; read-out: %remaining protein XIAP, MM.1S cells, 16 h treatment at 0.1 μM, normalized to loading control and DMSO) [%] | remaining activity at 0.1 µM ([5]; read-out: %remaining protein cIAP1, MM.1S cells, 16 h treatment at 0.1 μM, normalized to loading control and DMSO) [%] | remaining activity at 0.1 µM ([6]; read-out: %remaining protein cIAP2, MM.1S cells, 16 h treatment at 0.1 μM, normalized to loading control and DMSO) [%] | remaining activity at 0.1 µM ([7]; read-out: %remaining protein VHL30, MM.1S cells, 16 h treatment at 0.1 μM, normalized to loading control and DMSO) [%] | remaining activity at 0.1 µM [3, 8] [%] | remaining activity at 0.1 µM [5, 9] [%] | remaining activity at 0.1 µM [6, 10] [%] | remaining activity at 0.1 µM [7, 11] [%]
1 | CN[C@@H](C)C(=O)N[C@H](C(=O)N1CCC[C@H]1c1nc(C(=O)c2ccc(F)cc2)cs1)C1CCCCC1 [LCL161, reference compound] | 0.12 | 3.3 | failed to degrade XIAP |  |  |  |  |  |  |  |  | 
2 | Cc1ncsc1-c1ccc([C@H](C)NC(=O)[C@@H]2C[C@@H](O)CN2C(=O)[C@@H](NC(=O)CCCCOc2cccc(O[C@H]3C[C@@H](C(=O)N[C@@H]4CCCc5ccccc54)N(C(=O)[C@@H](NC(=O)[C@H](C)N(C)C(=O)OC(C)(C)C)C4CCCCC4)C3)c2)C(C)(C)C)cc1 [PROTAC 10d, tert-Butyl ((S)-1-(((S)-1-Cyclohexyl-2-((2S,4S)-4-(3-((5-(((S)-1-((2S,4R)-4-hydroxy-2-(((S)-1-(4-(4-methylthiazol-5-yl)phenyl)ethyl)carbamoyl)pyrrolidin-1-yl)-3,3-dimethyl-1-oxobutan-2-yl)amino)-5-oxopentyl)oxy)phenoxy)-2-(((R)-1,2,3,4-tetrahydronaphthalen-1-yl)carbamoyl)pyrrolidin-1-yl)-2-oxoethyl)amino)-1-oxopropan-2-yl)(methyl)carbamate] |  |  |  | inactivated PROTACs | 87 | 73 | 88 | > 99 |  |  |  | 
3 | CN[C@@H](C)C(=O)N[C@H](C(=O)N1C[C@@H](Oc2cccc(OCCCCCOc3cc(-c4scnc4C)ccc3CNC(=O)[C@@H]3C[C@@H](O)CN3C(=O)[C@H](C(C)C)N3Cc4ccccc4C3=O)c2)C[C@H]1C(=O)N[C@@H]1CCCc2ccccc21)C1CCCCC1 [PROTAC 12, (2S,4S)-1-((S)-2-Cyclohexyl-2-((S)-2-(methylamino)propanamido)acetyl)-4-(3-((5-(2-(((2S,4R)-4-hydroxy-1-((S)-3-methyl-2-(1-oxoisoindolin-2-yl)butanoyl)pyrrolidine-2-carboxamido)methyl)-5-(4-methylthiazol-5-yl)phenoxy)pentyl)oxy)phenoxy)-N-((R)-1,2,3,4-tetrahydronaphthalen-1-yl)pyrrolidine-2-carboxamide] | 0.04 | 4 |  |  |  |  |  |  | 5 | 4 | 29 | 55
4 | CN[C@@H](C)C(=O)N[C@H](C(=O)N1C[C@@H](Oc2cccc(OCCCCCCCCOc3cc(-c4scnc4C)ccc3CNC(=O)[C@@H]3C[C@@H](O)CN3C(=O)[C@H](C(C)C)N3Cc4ccccc4C3=O)c2)C[C@H]1C(=O)N[C@@H]1CCCc2ccccc21)C1CCCCC1 [PROTAC 13, (2S,4S)-1-((S)-2-Cyclohexyl-2-((S)-2-(methylamino)propanamido)acetyl)-4-(3-((8-(2-(((2S,4R)-4-hydroxy-1-((S)-3-methyl-2-(1-oxoisoindolin-2-yl)butanoyl)pyrrolidine-2-carboxamido)methyl)-5-(4-methylthiazol-5-yl)phenoxy)octyl)oxy)phenoxy)-N-((R)-1,2,3,4-tetrahydronaphthalen-1-yl)pyrrolidine-2-carboxamide] | 0.03 | 4.8 |  |  |  |  |  |  | 5 | 3 | 15 | 53
5 | CN[C@@H](C)C(=O)N[C@H](C(=O)N1C[C@@H](Oc2cccc(OCCCCOCCCCOc3cc(-c4scnc4C)ccc3CNC(=O)[C@@H]3C[C@@H](O)CN3C(=O)[C@H](C(C)C)N3Cc4ccccc4C3=O)c2)C[C@H]1C(=O)N[C@@H]1CCCc2ccccc21)C1CCCCC1 [PROTAC 14, (2S,4S)-1-((S)-2-Cyclohexyl-2-((S)-2-(methylamino)propanamido)acetyl)-4-(3-(4-(4-(2-(((2S,4R)-4-hydroxy-1-((S)-3-methyl-2-(1-oxoisoindolin-2-yl)butanoyl)pyrrolidine-2-carboxamido)methyl)-5-(4-methylthiazol-5-yl)phenoxy)butoxy)butoxy)phenoxy)-N-((R)-1,2,3,4-tetrahydronaphthalen-1-yl)pyrrolidine-2-carboxamide] | 0.04 | 4.2 |  |  |  |  |  |  | 3 | 2 | 15 | 39
6 | CN[C@@H](C)C(=O)N[C@H](C(=O)N1C[C@@H](Oc2cccc(OCCOCCOCCOc3cc(-c4scnc4C)ccc3CNC(=O)[C@@H]3C[C@@H](O)CN3C(=O)[C@H](C(C)C)N3Cc4ccccc4C3=O)c2)C[C@H]1C(=O)N[C@@H]1CCCc2ccccc21)C1CCCCC1 [PROTAC 15, (2S,4S)-1-((S)-2-Cyclohexyl-2-((S)-2-(methylamino)propanamido)acetyl)-4-(3-(2-(2-(2-(2-(((2S,4R)-4-hydroxy-1-((S)-3-methyl-2-(1-oxoisoindolin-2-yl)butanoyl)pyrrolidine-2-carboxamido)methyl)-5-(4-methylthiazol-5-yl)phenoxy)ethoxy)ethoxy)ethoxy)phenoxy)-N-((R)-1,2,3,4-tetrahydronaphthalen-1-yl)pyrrolidine-2-carboxamide] | 0.05 | 3.4 |  |  |  |  |  |  | 3 | 3 | 32 | 51
7 | CN[C@@H](C)C(=O)N[C@H](C(=O)N1C[C@@H](Oc2cccc(OCCOCCOCCOCCOc3cc(-c4scnc4C)ccc3CNC(=O)[C@@H]3C[C@@H](O)CN3C(=O)[C@H](C(C)C)N3Cc4ccccc4C3=O)c2)C[C@H]1C(=O)N[C@@H]1CCCc2ccccc21)C1CCCCC1 [PROTAC 16, (2S,4S)-1-((S)-2-Cyclohexyl-2-((S)-2-(methylamino)propanamido)acetyl)-4-(3-(2-(2-(2-(2-(2-(((2S,4R)-4-hydroxy-1-((S)-3-methyl-2-(1-oxoisoindolin-2-yl)butanoyl)pyrrolidine-2-carboxamido)methyl)-5-(4-methylthiazol-5-yl)phenoxy)ethoxy)ethoxy)ethoxy)ethoxy)phenoxy)-N-((R)-1,2,3,4-tetrahydronaphthalen-1-yl)pyrrolidine-2-carboxamide] | 0.05 | 3.3 |  |  |  |  |  |  | 2 | 3 | 31 | 41
8 | CN[C@@H](C)C(=O)N[C@H](C(=O)N1C[C@@H](Oc2cccc(OCCCCCCOCCCCCCOCCCCCCOc3cc(-c4scnc4C)ccc3CNC(=O)[C@@H]3C[C@@H](O)CN3C(=O)[C@H](C(C)C)N3Cc4ccccc4C3=O)c2)C[C@H]1C(=O)N[C@@H]1CCCc2ccccc21)C1CCCCC1 [PROTAC 19, (2S,4S)-1-((S)-2-Cyclohexyl-2-((S)-2-(methylamino)propanamido)acetyl)-4-(3-((6-((6-((6-(2-(((2S,4R)-4-hydroxy-1-((S)-3-methyl-2-(1-oxoisoindolin-2-yl)butanoyl)pyrrolidine-2-carboxamido)methyl)-5-(4-methylthiazol-5-yl)phenoxy)hexyl)oxy)hexyl)oxy)hexyl)oxy)phenoxy)-N-((R)-1,2,3,4-tetrahydronaphthalen-1-yl)pyrrolidine-2-carboxamide] |  | 6.3 |  | dual cIAP1/XIAP degradation at 0.1 μM concentration; also recorded: pan-IAP degradation at 1 μM; also recorded: no degradation at 10 nM |  |  |  |  | 34 | 27 | 84 | 95
